# Measurements published in patent US8946229B2, “Formulations” (UCB, Inc., priority 2002, dated 2015).
# Test: Reactivity of polyols with active compounds of formula I
# Type: physicochemical
compound,measurement,value
OC[C@H]1O[C@@H](O[C@H]2[C@H](O)[C@@H](O)C(O)O[C@@H]2CO)[C@H](O)[C@@H](O)[C@H]1O (stereo partly shown) [Lactose],Reactivity with the active compounds of formula I (undesired reaction products),practically no reactivity
